Laboratory results reported in patent US20190076384A1, “METHODS FOR TREATING UREA CYCLE DISORDERS” (priority 2017, published 2019).
Like-named read-outs stand apart in the source and are kept apart here.

Columns and labels:
CYP2C8 = biological target: T1, CYP2C8 (Homo sapiens, UniProt P10632); test: In vitro CYP inhibition study, human liver microsomes, CYP2C8; format: in vitro ADME; details: Taxol 6α-hydroxylase, 5 mM
T1 construct: from tissue; host or cells: human liver microsomes
T1 sequence (P10632 1-490): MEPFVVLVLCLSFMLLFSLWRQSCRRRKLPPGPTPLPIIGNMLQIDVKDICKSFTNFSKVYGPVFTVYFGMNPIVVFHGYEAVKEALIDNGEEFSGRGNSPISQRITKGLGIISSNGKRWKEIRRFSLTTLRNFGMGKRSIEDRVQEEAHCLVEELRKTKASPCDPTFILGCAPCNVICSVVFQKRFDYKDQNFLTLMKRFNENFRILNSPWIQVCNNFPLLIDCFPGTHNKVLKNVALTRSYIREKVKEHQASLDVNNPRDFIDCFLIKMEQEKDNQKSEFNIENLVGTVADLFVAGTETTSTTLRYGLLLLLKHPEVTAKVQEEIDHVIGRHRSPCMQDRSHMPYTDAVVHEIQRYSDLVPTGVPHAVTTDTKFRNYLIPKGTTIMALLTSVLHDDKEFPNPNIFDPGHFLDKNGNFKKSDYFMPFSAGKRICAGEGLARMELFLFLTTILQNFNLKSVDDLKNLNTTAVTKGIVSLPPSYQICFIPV

[1] = format: in vivo, human
[2] = Safety and tolerability of RAVICTI coadministered with midazolam; format: in vivo, human
Protocol: (§1) Safety: Safety and tolerability were assessed through adverse events (AEs), clinical laboratory results, physical examination findings, vital sign measurements, and electrocardiograms (ECGs).
(§2) Safety: Safety data were summarized by treatment and time point. Descriptive statistics (mean, standard deviation [SD], minimum, median, maximum, and sample size [N]) were calculated for quantitative safety data and frequency counts were compiled for classification of qualitative safety data. AE verbatim terms were mapped to preferred terms and system organ classes using the Medical Dictionary for Regulatory Activities (MedDRA®) (Version 16.1). Concomitant medications were coded with the World Health Organization (WHO) Dictionary version 1Mar. 2013.

[3] = Safety and tolerability of RAVICTI co-administered with celecoxib; format: in vivo, human
Protocol: as §1
as §2, with “18.0).” for “16.1).”, “2015.” for “2013.”

CYP2D6 = CYP2D6 (Homo sapiens, UniProt P10635); details: Bufuralol 1′-hydroxylase, 5 mM
CYP1A2 = biological target: T2, CYP1A2 (Homo sapiens, UniProt P05177); format: in vitro ADME; details: 7-ethoxyresorufin-O-deethylase, 5 mM
T2 construct: from tissue; host or cells: human liver microsomes
T2 sequence (P05177 1-516): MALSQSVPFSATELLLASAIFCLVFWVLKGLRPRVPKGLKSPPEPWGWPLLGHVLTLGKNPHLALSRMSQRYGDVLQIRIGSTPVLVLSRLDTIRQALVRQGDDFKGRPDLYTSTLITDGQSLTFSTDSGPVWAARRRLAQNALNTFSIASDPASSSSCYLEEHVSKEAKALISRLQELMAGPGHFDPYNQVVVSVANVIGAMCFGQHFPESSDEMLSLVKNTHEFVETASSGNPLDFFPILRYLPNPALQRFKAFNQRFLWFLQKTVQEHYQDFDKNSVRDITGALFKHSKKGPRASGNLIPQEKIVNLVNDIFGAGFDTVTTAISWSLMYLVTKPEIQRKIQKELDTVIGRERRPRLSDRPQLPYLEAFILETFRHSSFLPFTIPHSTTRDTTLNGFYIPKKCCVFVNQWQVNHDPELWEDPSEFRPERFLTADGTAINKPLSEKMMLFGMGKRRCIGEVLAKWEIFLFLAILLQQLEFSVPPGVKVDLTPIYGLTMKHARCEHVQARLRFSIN

CYP2C19 = biological target: T3, CYP2C19 (Homo sapiens, UniProt P33261); format: in vitro ADME; details: S-Mephenytoin 4′-hydroxylase, 5 mM
T3 construct: from tissue; host or cells: human liver microsomes

Cytochrome P450 3A4 = Cytochrome P450 3A4 (Homo sapiens, UniProt P08684); test: clinical
Protocol: Methodology: This was a Phase 1, open-label, monosequence crossover, drug-drug interaction study of RAVICTI® and midazolam in healthy male and female subjects.
Single doses of midazolam HCl syrup (2 mg/mL) were administered in the morning following an approximate 10-hour fast on Days 1 and 5 (coadministered with RAVICTI® on Day 5) just prior to administration of breakfast (˜5 minutes before breakfast).
Pharmacokinetics: Blood samples for the analysis of plasma midazolam and its metabolite (1′-OH-midazolam, free+conjugates) levels were collected via an indwelling catheter and/or via direct venipuncture. Blood samples were collected on Days 1 and 5 at the following time points: predose, 0.5, 1, 2, 3, 4, 6, 8, 10, 12, 16, and 24 hours postdose. In addition, five plasma PK samples for GPB analysis were collected on Day 4 at the following time points: at 1 minute, 30 minutes, and 1 hour following the first morning dose of RAVICTI; at 30 minutes and 1 hour post second dose of RAVICTI.
Pharmacokinetics: The possible drug-drug interaction was examined between coadministration of RAVICTI and midazolam (test) and midazolam administered alone (reference). An analysis of variance (ANOVA), with treatment as a fixed effect and subject as a random effect, was performed. Data for Cmax, AUC0-t, and AUC0-∞, as appropriate, were natural log (ln)-transformed prior to analysis. The 90% confidence intervals (CIs) of the test group means relative to the reference group means were obtained by taking the antilog of the corresponding 90% CIs for the differences between the means on the log scale, i.e., ratio of geometric least-squares (LS) means.

[4] = RAVICTI coadministered with midazolam, 24 healthy subjects
[5] = RAVICTI co-administered with celecoxib, 28 healthy subjects

Cytochrome P450 3A4, sequence (P08684 whole entry): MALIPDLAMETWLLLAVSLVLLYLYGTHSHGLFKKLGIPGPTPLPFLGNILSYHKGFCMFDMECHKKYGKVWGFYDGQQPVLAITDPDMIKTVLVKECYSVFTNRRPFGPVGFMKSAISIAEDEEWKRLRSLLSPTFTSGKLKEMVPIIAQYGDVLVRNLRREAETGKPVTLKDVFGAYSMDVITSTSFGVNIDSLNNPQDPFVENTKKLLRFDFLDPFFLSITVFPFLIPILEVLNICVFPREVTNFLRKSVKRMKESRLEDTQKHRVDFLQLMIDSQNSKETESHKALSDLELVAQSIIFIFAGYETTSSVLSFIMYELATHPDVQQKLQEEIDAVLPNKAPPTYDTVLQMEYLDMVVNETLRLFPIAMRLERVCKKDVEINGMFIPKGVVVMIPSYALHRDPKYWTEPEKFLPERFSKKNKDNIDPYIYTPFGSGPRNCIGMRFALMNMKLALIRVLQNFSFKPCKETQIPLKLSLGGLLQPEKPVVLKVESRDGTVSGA
T3 sequence (P33261 whole entry): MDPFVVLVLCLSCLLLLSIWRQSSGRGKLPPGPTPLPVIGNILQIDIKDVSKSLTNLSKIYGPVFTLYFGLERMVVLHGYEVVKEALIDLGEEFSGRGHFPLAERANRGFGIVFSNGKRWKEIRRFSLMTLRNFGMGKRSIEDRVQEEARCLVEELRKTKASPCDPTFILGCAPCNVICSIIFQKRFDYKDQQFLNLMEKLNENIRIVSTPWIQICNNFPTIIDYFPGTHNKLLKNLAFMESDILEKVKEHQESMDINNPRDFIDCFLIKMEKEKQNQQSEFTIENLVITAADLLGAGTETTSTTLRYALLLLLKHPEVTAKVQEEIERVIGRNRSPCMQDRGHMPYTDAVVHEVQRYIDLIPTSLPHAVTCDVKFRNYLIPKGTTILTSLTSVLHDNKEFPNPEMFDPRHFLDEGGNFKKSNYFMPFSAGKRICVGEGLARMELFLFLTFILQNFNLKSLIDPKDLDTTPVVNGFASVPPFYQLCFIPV
CYP2D6, sequence (P10635 whole entry): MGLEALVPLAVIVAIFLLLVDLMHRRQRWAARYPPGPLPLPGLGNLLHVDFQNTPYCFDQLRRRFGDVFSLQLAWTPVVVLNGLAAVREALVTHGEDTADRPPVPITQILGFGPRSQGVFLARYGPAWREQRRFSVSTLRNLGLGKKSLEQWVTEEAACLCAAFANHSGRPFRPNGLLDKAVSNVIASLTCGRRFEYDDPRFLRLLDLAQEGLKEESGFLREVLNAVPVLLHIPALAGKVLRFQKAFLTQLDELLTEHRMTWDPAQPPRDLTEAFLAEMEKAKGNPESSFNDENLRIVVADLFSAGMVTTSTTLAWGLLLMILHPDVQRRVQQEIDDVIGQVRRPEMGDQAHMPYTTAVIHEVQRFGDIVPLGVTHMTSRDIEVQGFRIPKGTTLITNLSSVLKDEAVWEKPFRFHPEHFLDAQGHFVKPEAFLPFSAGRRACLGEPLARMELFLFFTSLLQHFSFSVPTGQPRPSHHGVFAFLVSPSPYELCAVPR

Compound: O=C(CCCc1ccccc1)OCC(COC(=O)CCCc1ccccc1)OC(=O)CCCc1ccccc1 [RAVICTI, benzenebutanoic acid, 1′,1″-(1,2,3-propanetriyl) ester]
- % Inhibition (CYP2C8; pre-incubation time 0 min): 11%
- % Inhibition (CYP2C8; pre-incubation time 30 min): 10%
- Plasma glycerol phenylbutyrate concentrations ([1]; Day 4 samples, not quantifiable, LLOQ=1.00 ng/mL): < 1.00 ng/mL
- Intact glycerol phenylbutyrate in plasma ([1]; healthy subjects, RAVICTI oral): not detectable
- deaths, SAEs, discontinuations due to AEs [2, 4]: no deaths, serious adverse events (SAEs), or subject discontinuations due to AEs
- subjects experiencing TEAEs [2, 4]: 6 subjects
- total TEAEs [2, 4]: 10
- safety and tolerability (conclusion) ([2]; oral RAVICTI coadministered with midazolam, healthy adults): safe and generally well tolerated
- deaths, SAEs, discontinuations due to AEs [3, 5]: no deaths, SAEs, or subject discontinuations due to AEs
- subjects experiencing TEAEs [3, 5]: 8 subjects
- total TEAEs [3, 5]: 23
- safety and tolerability (conclusion) ([3]; oral RAVICTI co-administered with celecoxib, healthy adults): safe and generally well tolerated
- % Inhibition (CYP2D6; pre-incubation time 0 min): 1%
- % Inhibition (CYP2D6; pre-incubation time 30 min): 4%
- % Inhibition (CYP1A2; pre-incubation time 0 min): 5%
- % Inhibition (CYP1A2; pre-incubation time 30 min): 8%
- % Inhibition (CYP2C19; pre-incubation time 0 min): 8%
- % Inhibition (CYP2C19; pre-incubation time 30 min): 7%
- drug-drug interaction by statistical analysis of Cmax, AUC0-t and AUC0-∞ (Cytochrome P450 3A4; RAVICTI metabolites with midazolam and 1′-OH-midazolam, 90% CIs outside 80 to […]): significant drug-drug interaction
- effect on CYP3A4 enzyme in vivo (conclusion) (Cytochrome P450 3A4; steady-state RAVICTI, healthy subjects): weak inducer
